According to ChEMBL document CHEMBL1148794, “Structure-activity relationship of a series of inhibitors of monoacylglycerol hydrolysis--comparison with effects upon fatty acid amide hydrolase” (J Med Chem, 2007):

Legend:
[1] = target: T1, Monoglyceride lipase (Rattus norvegicus) (UniProt Q8R431); assay: (§1) Inhibition of MGL in rat cerebellum membrane fractions assessed as [3H]2-oleoylglycerol hydrolysis; format: cell membranes
T1 sequence (whole entry): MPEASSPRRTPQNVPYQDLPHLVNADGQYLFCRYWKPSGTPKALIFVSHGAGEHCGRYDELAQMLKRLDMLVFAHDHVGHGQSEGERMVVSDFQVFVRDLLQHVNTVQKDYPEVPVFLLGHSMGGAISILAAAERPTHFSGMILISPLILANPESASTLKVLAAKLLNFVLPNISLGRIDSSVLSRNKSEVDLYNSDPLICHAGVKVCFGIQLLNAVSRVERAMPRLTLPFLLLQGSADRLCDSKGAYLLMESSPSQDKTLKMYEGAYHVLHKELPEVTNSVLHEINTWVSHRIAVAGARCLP

[2] = target: T1, Monoglyceride lipase (Rattus norvegicus); assay: (§2) Inhibition of MGL in rat cerebellum cytosolic fractions assessed as [3H]2-oleoylglycerol hydrolysis; format: tissue-based
[3] = target: T1, Monoglyceride lipase (Rattus norvegicus); assay: Inhibition of MGL in rat cerebellum cytosolic fractions assessed as [3H]2-oleoylglycerol hydrolysis at 100 uM; format: tissue-based
[4] = target: T1, Monoglyceride lipase (Rattus norvegicus); assay: Inhibition of MGL in rat cerebellum membrane fractions assessed as [3H]2-oleoylglycerol hydrolysis at 100 uM; format: cell membranes
[5] = target: T2, Fatty-acid amide hydrolase 1 (Rattus norvegicus, UniProt P97612); assay: (§3) Inhibition of FAAH in rat cerebellum membranes assessed as [3H]anandamide hydrolysis; format: cell membranes, Membrane
T2 sequence (P97612 whole entry): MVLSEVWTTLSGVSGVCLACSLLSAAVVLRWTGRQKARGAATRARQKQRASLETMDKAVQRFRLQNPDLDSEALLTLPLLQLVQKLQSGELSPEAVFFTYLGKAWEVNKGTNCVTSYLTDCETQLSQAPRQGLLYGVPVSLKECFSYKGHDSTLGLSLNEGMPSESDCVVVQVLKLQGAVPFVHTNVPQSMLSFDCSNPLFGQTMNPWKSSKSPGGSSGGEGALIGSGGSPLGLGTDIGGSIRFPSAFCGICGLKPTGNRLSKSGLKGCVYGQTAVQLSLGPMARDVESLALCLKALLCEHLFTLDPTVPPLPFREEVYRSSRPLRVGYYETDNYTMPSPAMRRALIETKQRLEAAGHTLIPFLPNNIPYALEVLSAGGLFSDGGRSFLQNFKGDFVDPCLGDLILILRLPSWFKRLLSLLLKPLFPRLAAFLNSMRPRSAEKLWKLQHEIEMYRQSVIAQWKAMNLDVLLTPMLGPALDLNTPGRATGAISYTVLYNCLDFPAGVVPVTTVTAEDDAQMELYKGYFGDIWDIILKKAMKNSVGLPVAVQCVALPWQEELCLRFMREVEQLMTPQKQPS

[6] = target: T3, Fatty-acid amide hydrolase 1 (Rattus norvegicus) (UniProt P97612); assay: as §3; format: cell membranes; conditions: Membrane
T3 sequence (whole entry): T2 sequence (P97612 whole entry)

Monoglyceride lipase [7] = target: T4, Monoglyceride lipase (Rattus norvegicus, UniProt Q8R431); assay: as §2; format: tissue-based
T4 sequence (Q8R431 whole entry): T1 sequence (whole entry)

Monoglyceride lipase [8] = target: T4, Monoglyceride lipase; assay: as §1; format: cell membranes

Row | Compound | Log I50 [1] | pI50 (-log I50, M) [2] | inhibition [3] | inhibition [4] | IC50 [5] | pI50 (-log10 of IC50 in M) [6] | IC50 (Monoglyceride lipase [7]) | IC50 (Monoglyceride lipase [8])
1 | O=C(OCC1CCCCO1)c1ccccc1-c1ccccc1 (racemic) | < 4 | < 4 | 38% | 47% | 43 µM | 4.37 | – | –
2 | CCCCC/C=C\C/C=C\CCCCCCCC(=O)OCC1CCCCO1 (racemic) | < 4 | 4.1 | – | 38% | 7.5 µM | 5.13 | 73 µM | –
3 | CCCCC/C=C\C/C=C\C/C=C\C/C=C\CCCC(=O)OCC1CO1 (racemic) | 4.72 | – | – | – | 12 µM | – | – | 19 µM
4 | CCCCCCCC/C=C\CCCCCCCC(=O)OCC1CCCCO1 (racemic) | < 4 | < 4 | 12% | 35% | 29 µM | 4.53 | – | –
5 | CCCCC/C=C\C/C=C\C/C=C\C/C=C\CCCC(=O)OC[C@@H]1CO1 | < 4 | 5.1 | – | – | 12 µM | – | 8 µM | –
6 | CCCCCC/C=C\CCCCCCCC(=O)OCC1CO1 (racemic) | 4.55 | 4.87 | 84% | – | 8.2 µM | 5.09 | 13 µM | 28 µM
7 | O=C(OCC1CO1)c1cccc(-c2ccccc2)c1 (racemic) | < 4 | < 4 | 40% | 19% | 61 µM | 4.22 | – | –
8 | CCCCC/C=C\C/C=C\C/C=C\C/C=C\CCCC(=O)OCC1CCCO1 (centres undefined) | 4.1 | 4.67 | – | – | 33 µM | 4.48 | 21 µM | 75 µM
9 | CCCCC/C=C\C/C=C\CCCCCCCC(=O)OCC1CO1 (racemic) | – | – | – | 18% | – | – | – | –
10 | O=C(OCC1CCCCO1)c1ccc(-c2ccccc2)cc1 (racemic) | 4.1 | < 4 | 43% | – | 32 µM | 4.49 | – | 80 µM
11 | CCCCC/C=C\C/C=C\C/C=C\C/C=C\CCCC(=O)OCC1CCCCO1 (racemic) | 4.58 | 5.26 | – | – | 51 µM | 4.3 | 5.6 µM | 26 µM
12 | CCCCC/C=C\C/C=C\C/C=C\C/C=C\CCCC(=O)OC[C@@H]1COC(C)(C)O1 | < 4 | < 4 | 46% | 38% | 17 µM | 4.76 | – | –
13 | CCCCC/C=C\C/C=C\C/C=C\C/C=C\CCCC(=O)OCc1ccc2c(c1)OCO2 | < 4 | 4.35 | – | 3% | 91 µM | 4 | 45 µM | –
14 | O=C(OCC1CO1)c1ccc(-c2ccccc2)cc1 (racemic) | < 4 | < 4 | 43% | 9% | 35 µM | 4.45 | – | –
15 | CCCCC/C=C\C/C=C\C/C=C\C/C=C\CCCC(=O)NC[C@H]1CCCO1 | 4.09 | 4.59 | – | – | 99 µM | 4.01 | 25 µM | 81 µM
16 | O=C(OCC1CCCCO1)c1ccccc1 (racemic) | < 4 | 5.5 | 53% | 24% | 53 µM | 4.28 | 3 µM | –
17 | CCCCC/C=C\C/C=C\C/C=C\C/C=C\CCCC(=O)OCC1COC(C)(C)O1 (racemic) | 4 | 4.3 | – | – | 98 µM | 4 | 45 µM | 95 µM
18 | CCCCC/C=C\C/C=C\C/C=C\C/C=C\CCCC(=O)OC[C@H]1CO1 | < 4 | 5.2 | – | – | 6 µM | – | 6.3 µM | –
19 | CCCCCCCC/C=C\CCCCCCCC(=O)OCC1CO1 (racemic) | < 4 | < 4 | 6% | 8% | 11 µM | 4.96 | – | –
20 | CCCCC/C=C\C/C=C\C/C=C\C/C=C\CCCC(=O)NCC1CCCO1 (centres undefined) | < 4 | 4.47 | – | 44% | 56 µM | 4.25 | 34 µM | –
21 | CC/C=C\C/C=C\C/C=C\CCCCCCCC(=O)OCC1CCCCO1 (racemic) | < 4 | 4.64 | – | 33% | 19 µM | 4.73 | 23 µM | –
22 | CCCCC/C=C\C/C=C\C/C=C\C/C=C\CCCC(=O)OCCC1OCC(C)(C)CO1 | 4 | 4.57 | – | – | 21 µM | 4.68 | 27 µM | 99 µM
23 | CCCCC/C=C\C/C=C\C/C=C\C/C=C\CCCC(=O)OC[C@H]1COC(C)(C)O1 | < 4 | 4.22 | – | 34% | 28 µM | 4.55 | 60 µM | –
24 | CCCCC/C=C\C/C=C\C/C=C\C/C=C\CCCC(=O)NC[C@@H]1CCCO1 | 4.1 | 5.5 | 59% | – | 69 µM | 4.16 | 3.5 µM | 70 µM
25 | O=C(OCC1CCCCO1)c1cccc(-c2ccccc2)c1 (racemic) | < 4 | < 4 | 36% | 49% | 18 µM | 4.75 | – | –
26 | CC/C=C\C/C=C\C/C=C\CCCCCCCC(=O)OCC1CO1 (racemic) | 4.3 | 4.97 | – | – | 1.6 µM | 5.8 | 11 µM | 50 µM
27 | CCCCC/C=C\C/C=C\C/C=C\C/C=C\CCCC(=O)NCC1COC(C)(C)O1 (racemic) | < 4 | 4.8 | 71% | 45% | 90 µM | 4.05 | 15 µM | –
